Where “and” joins values, the source holds several entries; their conditions need not be identical. Identical values can stand only once. Like-named read-outs stand apart in the source and are kept apart here.
What was measured:
[1] = system: phosphorylation of FLT3, VEGFR2, c-KIT, PDGFRβ and downstream signals in HepG2 cells; experiment: Western blot of kinase phosphorylation; format: cell-based, human; details: HepG2, exposure 10 to 120 min, concentration-dependent
Description: HepG2 cells were seeded in a 60 mm^2 culture dish at a density of 1.5 × 10^6 cells/dish and incubated for 24 h. […] Cells were harvested and protein extraction and Western blotting methods were performed as previously described. Membranes were incubated using the following diluted primary antibodies; PARP (1:1000 dilution), caspase-3 (1:1000 dilution), cleaved caspase-3 (1:1000 dilution), pFLT3 (1:500 dilution), Ras (1:1000 dilution), pc-Raf (1:1000 dilution), pMEK1/2 (1:1000 dilution), pERK1/2 (1:1000 dilution), pAKT (1:1000 dilution), pmTOR (1:1000 dilution), pVEGFR2 (1:1000 dilution), pPDGFR β (1:2000 dilution), and β-actin (1:1000 dilution) in Tris-HCl-based buffer containing 0.2% Tween-20 (T1027, Biosesang, Seongnam, Korea) (TBS-T; pH 7.5). Membranes were then incubated with horseradish-conjugated secondary antibodies (1:5000, Cell Signaling Technologies, Beverly, MA, USA) for 1 h at 25 °C. After washing with TBS-T, immunoreactive bands were visualized using the chemiluminescence western imaging system (Supernova-Q1800TM, Centronics, Daejeon, Korea). Band intensities were measured using ImageJ (Version 1.50i; US National Institutes of Health, Bethesda, MD, USA) and were normalized to β-actin.

HepG2 xenograft tumor [2] = experiment: HepG2 subcutaneous xenograft, dose study (19 d); details: for Toxic deaths/total: 19 d; for Body weight loss rate (%) / Tumor growth inhibition rate (%): day 19; for tumor weight per mouse: after 19 d, vehicle control 0.31 ± 0.089 g; for average tumor volume: end of 9 administrations, start 200 mm^3, saline approx. 1000 mm^3
HepG2 cells = experiment: JC-1 mitochondrial membrane potential assay; format: cell-based, human
Description: Alterations in MMP were investigated utilizing the cationic dye tetraethylbenzimidazolylcarbocyanine iodide (JC-1) according to the manufacturer’s instructions (Cat. ab113850, Abcam, Cambridge, MA, USA). HepG2 cells were seeded in a 35 mm^2 dish at a density of 7.5 × 10^5 cells/dish and incubated for 24 h. Cells were treated with MBP-11901 for 2 h and media was changed with fresh one. Briefly, after 2 d incubation, cells were washed with 1× dilution buffer, and incubated with 1 μM JC-1 in 1× dilution buffer for 30 min at 37 °C. Cells were then washed 3 times with 1× dilution buffer. Fluorescence was measured under a fluorescence microscope (ECLIPSE Ti, Nikon, Melville, NY, USA) using an excitation filter of 530 nm ± 15 nm and an emission filter of 590 nm ± 17.5 nm.

MEK5 = target: T1, MEK5 (Homo sapiens, UniProt Q13163); experiment: KINOMEscan competition binding / KdELECT
T1 construct: purchased Eurofins DiscoverX Corporation
T1 sequence (Q13163 whole entry): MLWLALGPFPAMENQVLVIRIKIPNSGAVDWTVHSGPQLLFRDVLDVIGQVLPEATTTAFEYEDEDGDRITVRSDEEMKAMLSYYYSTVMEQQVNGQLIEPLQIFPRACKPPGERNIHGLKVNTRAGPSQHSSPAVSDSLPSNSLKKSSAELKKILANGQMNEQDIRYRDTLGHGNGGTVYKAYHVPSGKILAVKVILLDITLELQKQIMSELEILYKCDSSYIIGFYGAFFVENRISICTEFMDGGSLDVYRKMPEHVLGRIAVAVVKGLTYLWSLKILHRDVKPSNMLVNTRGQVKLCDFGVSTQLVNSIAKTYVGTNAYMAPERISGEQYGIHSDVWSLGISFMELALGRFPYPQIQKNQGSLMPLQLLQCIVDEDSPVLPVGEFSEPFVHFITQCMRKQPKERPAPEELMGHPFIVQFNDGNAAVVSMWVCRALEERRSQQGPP
Description: (§1) The profiling of MBP-11901 against a panel of 468 kinases was performed by DiscoverX using KINOMEscan technology, an active-site-dependent competition-binding assay (Eurofins DiscoverX Corporation, San Diego, CA, USA). Binding constants (Kd) were calculated by DiscoverX using KdELECT technology, a widely used assay for comparing selectivity across the kinome. The DiscoverX platform reports the thermodynamic Kd to facilitate direct comparison of inhibitor affinity across the kinome, independent of ATP concentration.

VEGFR2 = target: T2, VEGFR2 (Homo sapiens, UniProt P35968); experiment: KINOMEscan competition binding / KdELECT
T2 construct: purchased Eurofins DiscoverX Corporation
T2 sequence (P35968 20-1356): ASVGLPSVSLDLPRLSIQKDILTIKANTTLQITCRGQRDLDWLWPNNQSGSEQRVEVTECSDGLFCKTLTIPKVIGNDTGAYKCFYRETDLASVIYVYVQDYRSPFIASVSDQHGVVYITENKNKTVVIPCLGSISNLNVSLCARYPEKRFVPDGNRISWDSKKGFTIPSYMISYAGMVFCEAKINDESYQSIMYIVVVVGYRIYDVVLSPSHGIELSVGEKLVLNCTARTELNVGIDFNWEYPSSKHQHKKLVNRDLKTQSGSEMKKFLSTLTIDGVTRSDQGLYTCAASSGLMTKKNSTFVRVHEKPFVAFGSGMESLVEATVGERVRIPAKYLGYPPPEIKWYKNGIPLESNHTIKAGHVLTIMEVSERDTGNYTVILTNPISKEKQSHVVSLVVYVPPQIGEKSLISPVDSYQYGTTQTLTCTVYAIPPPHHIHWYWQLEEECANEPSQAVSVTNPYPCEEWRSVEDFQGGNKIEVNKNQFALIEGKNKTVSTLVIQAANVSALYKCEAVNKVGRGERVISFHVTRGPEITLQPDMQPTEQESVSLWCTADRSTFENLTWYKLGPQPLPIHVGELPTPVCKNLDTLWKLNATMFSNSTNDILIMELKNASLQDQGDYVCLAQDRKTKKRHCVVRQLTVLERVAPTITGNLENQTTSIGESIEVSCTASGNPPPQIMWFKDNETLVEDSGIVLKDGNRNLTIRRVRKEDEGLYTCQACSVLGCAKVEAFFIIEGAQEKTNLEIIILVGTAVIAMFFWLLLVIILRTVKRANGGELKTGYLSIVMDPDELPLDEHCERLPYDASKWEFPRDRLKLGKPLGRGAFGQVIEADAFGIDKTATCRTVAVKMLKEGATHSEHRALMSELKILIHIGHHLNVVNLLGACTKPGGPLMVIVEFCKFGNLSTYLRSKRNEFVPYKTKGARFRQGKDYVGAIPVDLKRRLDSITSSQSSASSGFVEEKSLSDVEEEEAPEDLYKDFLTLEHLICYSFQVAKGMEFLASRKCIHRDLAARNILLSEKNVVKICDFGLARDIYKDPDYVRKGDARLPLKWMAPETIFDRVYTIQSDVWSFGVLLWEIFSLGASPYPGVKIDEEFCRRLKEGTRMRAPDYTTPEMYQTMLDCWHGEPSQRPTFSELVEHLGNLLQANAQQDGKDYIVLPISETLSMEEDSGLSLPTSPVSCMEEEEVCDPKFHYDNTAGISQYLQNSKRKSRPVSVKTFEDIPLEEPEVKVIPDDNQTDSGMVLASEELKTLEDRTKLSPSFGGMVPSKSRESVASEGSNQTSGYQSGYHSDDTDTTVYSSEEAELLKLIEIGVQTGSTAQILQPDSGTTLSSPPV
Description: as §1

PDGFRβ = target: T3, PDGFRβ (Homo sapiens, UniProt P09619); experiment: KINOMEscan competition binding / KdELECT
T3 construct: purchased Eurofins DiscoverX Corporation
T3 sequence (P09619 33-1106): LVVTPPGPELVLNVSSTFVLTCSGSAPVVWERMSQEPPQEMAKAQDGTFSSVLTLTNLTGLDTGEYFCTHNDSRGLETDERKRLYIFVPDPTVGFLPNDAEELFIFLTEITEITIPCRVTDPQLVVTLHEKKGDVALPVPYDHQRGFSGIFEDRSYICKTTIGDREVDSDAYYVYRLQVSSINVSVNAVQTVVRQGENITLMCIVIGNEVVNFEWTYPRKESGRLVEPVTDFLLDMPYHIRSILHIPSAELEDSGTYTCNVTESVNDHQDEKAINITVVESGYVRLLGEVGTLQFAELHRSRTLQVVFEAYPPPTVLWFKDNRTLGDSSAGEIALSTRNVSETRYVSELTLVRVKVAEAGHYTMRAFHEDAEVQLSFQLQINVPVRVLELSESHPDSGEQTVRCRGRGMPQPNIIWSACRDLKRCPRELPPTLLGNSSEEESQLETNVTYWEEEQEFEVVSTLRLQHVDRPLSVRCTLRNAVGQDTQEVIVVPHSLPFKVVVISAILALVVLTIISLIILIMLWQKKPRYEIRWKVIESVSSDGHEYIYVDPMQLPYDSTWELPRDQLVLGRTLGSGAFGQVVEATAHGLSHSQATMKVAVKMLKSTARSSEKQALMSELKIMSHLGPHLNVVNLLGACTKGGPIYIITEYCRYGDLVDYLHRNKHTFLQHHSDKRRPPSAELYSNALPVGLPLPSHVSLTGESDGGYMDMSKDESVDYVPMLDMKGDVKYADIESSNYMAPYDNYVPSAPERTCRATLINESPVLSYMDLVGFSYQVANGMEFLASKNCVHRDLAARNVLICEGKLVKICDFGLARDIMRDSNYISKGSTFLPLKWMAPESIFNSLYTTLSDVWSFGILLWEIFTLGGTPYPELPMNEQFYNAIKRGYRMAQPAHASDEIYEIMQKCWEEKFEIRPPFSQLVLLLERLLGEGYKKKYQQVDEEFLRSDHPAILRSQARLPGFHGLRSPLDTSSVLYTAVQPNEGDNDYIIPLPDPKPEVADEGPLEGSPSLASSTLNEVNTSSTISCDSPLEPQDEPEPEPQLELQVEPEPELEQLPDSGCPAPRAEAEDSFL
Description: as §1

MAP4K2 = target: T4, MAP4K2 (Homo sapiens, UniProt Q12851); experiment: KINOMEscan competition binding / KdELECT
T4 construct: purchased Eurofins DiscoverX Corporation
T4 sequence (Q12851 whole entry): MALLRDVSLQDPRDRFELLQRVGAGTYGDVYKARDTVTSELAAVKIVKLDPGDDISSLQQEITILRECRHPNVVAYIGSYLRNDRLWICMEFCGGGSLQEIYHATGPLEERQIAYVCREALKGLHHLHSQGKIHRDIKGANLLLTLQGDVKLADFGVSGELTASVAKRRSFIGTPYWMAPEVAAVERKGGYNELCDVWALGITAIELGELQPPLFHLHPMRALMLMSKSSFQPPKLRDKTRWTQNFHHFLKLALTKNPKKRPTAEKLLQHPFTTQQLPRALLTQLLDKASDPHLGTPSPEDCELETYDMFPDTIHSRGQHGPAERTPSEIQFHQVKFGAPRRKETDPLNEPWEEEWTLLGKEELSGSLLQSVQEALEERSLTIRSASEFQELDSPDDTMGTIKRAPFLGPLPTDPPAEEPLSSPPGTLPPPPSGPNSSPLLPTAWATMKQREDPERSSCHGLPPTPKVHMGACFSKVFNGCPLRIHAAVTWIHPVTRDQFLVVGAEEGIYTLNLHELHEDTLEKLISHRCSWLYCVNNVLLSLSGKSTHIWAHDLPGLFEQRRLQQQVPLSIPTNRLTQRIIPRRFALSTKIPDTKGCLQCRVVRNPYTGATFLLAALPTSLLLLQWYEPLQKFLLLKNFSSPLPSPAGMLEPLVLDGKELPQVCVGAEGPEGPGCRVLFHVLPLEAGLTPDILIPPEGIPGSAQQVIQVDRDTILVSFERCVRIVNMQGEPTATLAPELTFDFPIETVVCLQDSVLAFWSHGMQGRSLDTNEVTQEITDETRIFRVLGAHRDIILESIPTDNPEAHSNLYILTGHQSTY
Description: as §1

FLT3 = target: T5, FLT3 (Homo sapiens, UniProt P36888); experiment: KINOMEscan competition binding / KdELECT
T5 construct: purchased Eurofins DiscoverX Corporation
Description: as §1

MDA-MB-231 = experiment: CCK-8 cell proliferation/cytotoxicity assay; format: cell-based; details: Homo sapiens, MDA-MB-231, 24 h
FLT3(D835H) = target: T6, FLT3(D835H) (Homo sapiens, UniProt P36888, D835H); experiment: KINOMEscan competition binding; details: 10000 nM; lower = stronger binding; read-out: % Control
T6 construct: purchased Eurofins DiscoverX Corporation
Description: as §1

FLT3- autoinhibited = target: T7, FLT3- autoinhibited (Homo sapiens, UniProt P36888); experiment: KINOMEscan competition binding; details: 10000 nM; lower = stronger binding; read-out: % Control
T7 construct: purchased Eurofins DiscoverX Corporation
Description: as §1

FLT3(D835V) = target: T8, FLT3(D835V) (Homo sapiens, UniProt P36888, D835V); experiment: KINOMEscan competition binding; details: 10000 nM; lower = stronger binding; read-out: % Control
T8 construct: purchased Eurofins DiscoverX Corporation
Description: as §1

FLT3(D835Y) = target: T9, FLT3(D835Y) (Homo sapiens, UniProt P36888, D835Y); experiment: KINOMEscan competition binding; details: 10000 nM; lower = stronger binding; read-out: % Control
T9 construct: purchased Eurofins DiscoverX Corporation
Description: as §1

FLT3(K663Q) = target: T10, FLT3(K663Q) (Homo sapiens, UniProt P36888, K663Q); experiment: KINOMEscan competition binding; details: 10000 nM; lower = stronger binding; read-out: % Control
T10 construct: purchased Eurofins DiscoverX Corporation
Description: as §1

FLT3(N841I) = target: T11, FLT3(N841I) (Homo sapiens, UniProt P36888, N841I); experiment: KINOMEscan competition binding; details: 10000 nM; lower = stronger binding; read-out: % Control
T11 construct: purchased Eurofins DiscoverX Corporation
Description: as §1

HepG2 xenograft tumor [3] = details: for Tumor growth inhibition rate (%): 42 d (calculated on day 41); for Body weight loss rate (%): day 41
[4] = tumors, compared with vehicle control
[5] = 10000 nM, lower = stronger binding, read-out: % Control

Q: For `NCC(N)C(=O)Nc1ccc(-c2nc3ccccc3s2)cc1` (centres unmarked) [MBP-11901], which kinase phosphorylation [1] is on record?
A: inhibited

Q: And the Toxic deaths/total (HepG2 xenograft tumor [2]; 40 mg/kg oral once every 2 d)?
A: 0/8

Q: And the “Body weight loss rate (%)” value (HepG2 xenograft tumor [2]; 40 mg/kg oral once every 2 d)?
A: 2.00 ± 2.47 %

Q: What about the “Tumor growth inhibition rate (%)” value (HepG2 xenograft tumor [2]; 40 mg/kg oral once every 2 d) of the same compound?
A: 61.41 ± 0.45%

Q: And the “tumor weight per mouse” value (HepG2 xenograft tumor [2]; 40 mg/kg)?
A: 0.082 ± 0.063 g

Q: And the average tumor volume (HepG2 xenograft tumor [2]; 40 mg/kg)?
A: approximately 350 mm^3

Q: What about the “animals in which the tumor completely disappeared” value (HepG2 xenograft tumor [2]; 60 mg/kg group) of the same compound?
A: 3 out of 8

Q: And the Toxic deaths/total (HepG2 xenograft tumor [2]; 60 mg/kg oral once every 2 d)?
A: 0/8

Q: And the “Body weight loss rate (%)” value (HepG2 xenograft tumor [2]; 60 mg/kg oral once every 2 d)?
A: 1.50 ± 1.97 %

Q: And the “Tumor growth inhibition rate (%)” value (HepG2 xenograft tumor [2]; 60 mg/kg oral once every 2 d)?
A: 85.26 ± 0.36%

Q: And the “tumor weight per mouse” value (HepG2 xenograft tumor [2]; 60 mg/kg)?
A: 0.025 ± 0.035 g

Q: What about the average tumor volume (HepG2 xenograft tumor [2]; 60 mg/kg) of the same compound?
A: ~150 mm^3

Q: What about the “animals in which the tumor completely disappeared” value (HepG2 xenograft tumor [2]; 82 mg/kg group) of the same compound?
A: 4 out of 8

Q: What about the Toxic deaths/total (HepG2 xenograft tumor [2]; 82 mg/kg oral once every 2 d) of the same compound?
A: 0/8

Q: And the “Body weight loss rate (%)” value (HepG2 xenograft tumor [2]; 82 mg/kg oral once every 2 d)?
A: 1.78 ± 4.40 %

Q: And the “Tumor growth inhibition rate (%)” value (HepG2 xenograft tumor [2]; 82 mg/kg oral once every 2 d)?
A: 92.54 ± 0.02% and 92.54 ± 0.0 %

Q: What about the “tumor weight per mouse” value (HepG2 xenograft tumor [2]; 82 mg/kg) of the same compound?
A: 0.011 ± 0.009 g

Q: And the average tumor volume (HepG2 xenograft tumor [2]; 82 mg/kg)?
A: ~70 mm^3

Q: And the “apoptosis in tumors (cleaved caspase-3)” value (HepG2 xenograft tumor [2]; [4])?
A: high level of apoptosis

Q: What about the “proliferation of tumor cells (Ki-67)” value (HepG2 xenograft tumor [2]; [4]) of the same compound?
A: significant reduction

Q: What about the “mitochondrial potential (JC-1)” value (HepG2 cells) of the same compound?
A: decrease in mitochondrial potential

Q: What about the remaining binding at 10 µM (MEK5; [5]) of the same compound?
A: 3.3%

Q: What about the Kd (MEK5; MEK5) of the same compound?
A: > 30 µM

Q: What about the remaining binding at 10 µM (VEGFR2; [5]) of the same compound?
A: 30%

Q: And the Kd (VEGFR2; VEGFR2, mean ± S.D. (n = 2))?
A: 3.55 ± 0.25 µM

Q: What about the remaining binding at 10 µM (PDGFRβ; [5]) of the same compound?
A: 33%

Q: What about the Kd (PDGFRβ; PDGFRβ, mean ± S.D. (n = 2)) of the same compound?
A: 4 ± 0.22 µM

Q: And the remaining binding at 10 µM (MAP4K2; [5])?
A: 8.6%

Q: And the Kd (MAP4K2; MAP4K2, mean ± S.D. (n = 2))?
A: 1.1 µM

Q: What about the remaining binding at 10 µM (FLT3; [5]) of the same compound?
A: 16%

Q: And the Kd (FLT3; FLT3, mean ± S.D. (n = 2))?
A: 0.295 ± 0.005 µM

Q: And the IC50 (MDA-MB-231)?
A: 62 ± 6.5 µM

Q: What about the remaining binding at 10 µM (FLT3(D835H)) of the same compound?
A: 33%

Q: What about the remaining binding at 10 µM (FLT3- autoinhibited) of the same compound?
A: 19%

Q: And the remaining binding at 10 µM (FLT3(D835V))?
A: 1.6%

Q: What about the remaining binding at 10 µM (FLT3(D835Y)) of the same compound?
A: 11%

Q: What about the remaining binding at 10 µM (FLT3(K663Q)) of the same compound?
A: 7.5%

Q: What about the remaining binding at 10 µM (FLT3(N841I)) of the same compound?
A: 20%

Q: And the Toxic deaths/total (HepG2 xenograft tumor [3]; 82 mg/kg oral 1T/2D, 42 d)?
A: 0/6

Q: And the “Tumor growth inhibition rate (%)” value (HepG2 xenograft tumor [3]; 82 mg/kg oral 1T/2D)?
A: 99.82 ± 0.33%

Q: And the “Body weight loss rate (%)” value (HepG2 xenograft tumor [3]; 82 mg/kg oral 1T/2D)?
A: 1.85 ± 3.70%

Q: What about the Toxic deaths/total (HepG2 xenograft tumor [3]; 82 mg/kg oral 1T/3D, 42 d) of the same compound?
A: 0/6

Q: And the “Tumor growth inhibition rate (%)” value (HepG2 xenograft tumor [3]; 82 mg/kg oral 1T/3D)?
A: 99.51 ± 0.81%

Q: And the “Body weight loss rate (%)” value (HepG2 xenograft tumor [3]; 82 mg/kg oral 1T/3D)?
A: −0.43 ± 3.76 %

Q: What about the Toxic deaths/total (HepG2 xenograft tumor [3]; 82 mg/kg oral 1T/4D, 42 d) of the same compound?
A: 0/6

Q: And the “Tumor growth inhibition rate (%)” value (HepG2 xenograft tumor [3]; 82 mg/kg oral 1T/4D)?
A: 99.48 ± 0.60%

Q: And the “Body weight loss rate (%)” value (HepG2 xenograft tumor [3]; 82 mg/kg oral 1T/4D)?
A: −4.29 ± 0.59 %

Q: What about the “histological analysis of the liver and kidney” value (HepG2 xenograft tumor [3]; 42 d) of the same compound?
A: no apparent toxicity

Q: What about the “animals in which tumors had disappeared, out of a total of 6” value (HepG2 xenograft tumor [3]; all MBP-11901 groups, after 42 d) of the same compound?
A: 3–4

Q: And the GPT values (HepG2 xenograft tumor [3]; serum, MBP-11901 1T/3D and 1T/4D groups)?
A: significantly outside the normal range
